Measured values reported in patent US20260007613A1, “LONG-ACTING LOW-TOXICITY NOVEL CATIONIC LIPID COMPOUNDS AND COMPOSITION THEREOF” (BEIJING YOUCAREKECHUANG PHARMACEUTICAL TECHNOLOGY CO., LTD., priority 2023, published 2026).

Legend:
[1] = Particle size and polydispersity index (PDI) of lipid nanoparticles by dynamic light scattering; type: physicochemical; conditions: LNP formulation prepared from the cationic lipid, 25° C.
Protocol: The particle size and polydispersity index (PDI) were determined by dynamic light scattering using Malvern laser particle size analyzer.
10 μL of the liposome solution was weighed, diluted to 1 mL with RNase-free deionized water, and added to the sample pool. Each sample was measured in triplicate. The measurement conditions were: […] scattering angle, and 25° C.

293T cells [2] = assay: Fluorescent detection of Fluc-mRNA (cell transfection efficiency of LNP formulations); type: cell-based
Protocol: (§1) Cell recovery and passage: 293T cells were recovered, cultured in a culture dish, and passaged to the required number of cells.
(§2) Seeding plate: The cells in the culture dish were digested and counted. Cells were spread in a 96-well plate at 10,000 cells per well and in a 12-well plate at 150,000 cells per well. Cells were cultured overnight until the cells adhered to the wall.
(§3) Cell recovery and passage: the method was the same as in Example 3.
(§4) Seeding plate: the method was the same as in Example 3.
An LNP formulation containing […] of Fluc-mRNA (the carrier components of the LNP formulation were cationic lipid, neutral lipid, structured lipid and polymer-conjugated lipid with a molar ratio of 49:10:39.5:1.5, wherein the cationic lipid was listed in Table 1) was added to the cell culture medium of a 96-well plate, and further incubated for 24 hours. The corresponding reagent was added according to the instructions of the […] Luciferase Assay Kit, and the fluorescence expression intensity of each well was detected by an IVIS fluorescence detection system. This test verified the transfection efficiencies of LNP formulations in cells, see Tables 4-7 for specific test results.

293T cells [3] = assay: Cell survival rate determination (CCK-8); type: cell-based; conditions: LNP formulation of Fluc-mRNA, 24 hours, CCK-8
Protocol: as §1, §2, §3, §4
An LNP formulation containing […] of Fluc-mRNA (the carrier components of the LNP formulation were cationic lipid, neutral lipid, structured lipid and polymer-conjugated lipid with a molar ratio of 49:10:39.5:1.5, wherein the cationic lipid was listed in Table 1) and the formulation of Lipofectamine 3000 were added to the cell culture medium of a 96-well plate, and further cultivated for 24 hours. 10 μL of CCK-8 solution was then added to each well, and the culture plate was incubated in an incubator for 1 hour. The absorbance at 450 nm was measured by a microplate reader.
Cell survival rate can represent the toxicity of cationic lipids to cells. The higher the cell survival rate, the lower the toxicity to cells.

female BALB/C mice = assay: Live imaging in mice: protein expression of Fluc-mRNA delivered by LNP formulations; type: in vivo
Protocol: In addition, the protein expression and duration of mRNA in mice delivered by the cationic lipid delivery carriers designed were also verified.
The LNP formulation containing […] Fluc-mRNA was injected intramuscularly into female BALB/C mice aged 4 to 6 weeks old and weighed 17 to 19 g, and the mice were intraperitoneally injected with fluorescent imaging substrate at specific time points after administration (6 h, 24 h, 48 h and 7 d), where the mice were free to move for 5 minutes, and then the average radiation intensity (corresponding to fluorescence expression intensity) of the protein expression of the mRNA carried by the LNP in the mice was detected by the IVIS Spectrum small animal live imaging device.

Q: For `CCCCCCCCCCC(CCCCCCCCCC)CCCOC(=O)CCCN(CCCC(=O)OCCCC(CCCCCCCCCC)CCCCCCCCCC)C[C@H](O)CN(CCO)CCO` [YK-321, (S)-bis(4-decyltetradecyl)-4,4′-((3-(bis(2-hydroxyethyl)amino)-2-hydroxypropyl)azanediyl)dibutyrate], which “PDI (%)” value [1] is on record?
A: 39.1%

Q: What about the “Particle size (nm)” value [1] of the same compound?
A: 182 nm

Q: What about the “Relative light unit (RLU)” value (293T cells [2]; LNP formulation of Fluc-mRNA, 96-well plate, 24 hours) of the same compound?
A: 1403416 RLU

Q: What about the “Multiples (YK-305)” value (293T cells [2]; RLU of YK-305 / RLU of the lipid of the line) of the same compound?
A: 18.33

Q: What about the “Multiples (YK-310)” value (293T cells [2]; RLU of YK-310 / RLU of the lipid of the line) of the same compound?
A: 18.38

Q: And the “Multiples (YK-312)” value (293T cells [2]; RLU of YK-312 / RLU of the lipid of the line)?
A: 14.36

Q: And the “Multiples (YK-318)” value (293T cells [2]; RLU of YK-318 / RLU of the lipid of the line, Tables 5, 7, 11)?
A: 7.97

Q: What about the “Multiples (YK-319)” value (293T cells [2]; RLU of YK-319 / RLU of the lipid of the line, Tables 5, 7, 11) of the same compound?
A: 17.43

Q: What about the “Ratio relative to SM-102” value (293T cells [2]; RLU of the lipid / RLU of SM-102, times that of SM-102) of the same compound?
A: 0.87

Q: And the “Cell survival rate (%)” value (293T cells [3])?
A: 72.34%

Q: What about the average radiation intensity (female BALB/C mice; 6 h after intramuscular injection) of the same compound?
A: 615600

Q: What about the average radiation intensity (female BALB/C mice; 24 h after intramuscular injection) of the same compound?
A: 101230

Q: And the average radiation intensity (female BALB/C mice; 48 h after intramuscular injection)?
A: 36565

Q: And the average radiation intensity (female BALB/C mice; 7 d after intramuscular injection)?
A: 6586
